Earlier results in US20050129762A1, “Extended release pharmaceutical dosage form” (Wyeth, priority 2003, published 2005).
Counter-ions that a name gives are not always drawn.

Conditions: plural daily dosing regimen, immediate release tablets

## COc1ccc(C(CN(C)C)C2(O)CCCCC2)cc1 (centres unmarked) [venlafaxine hydrochloride, 1-[2-(dimethylamino)-1-(4-methoxyphenyl)ethyl]-cyclohexanol]
  Vomiting, share of patients: about seventeen
  nausea, share of patients under treatment: about forty five
